Reference: the NIST ThermoML archive (doi:10.1016/j.jct.2014.03.021)

Assay: refractive index (Na D-line) (dimensionless); xn = mol fraction of the nth substance listed
Conditions: 101 kPa, Liquid, Standard Abbe refractometry

C[C@H](O)C(=O)[O-].C[N+](C)(C)CCO + O
refractive index
Conditions | 293.15 K | 298.15 K | 303.15 K | 308.15 K | 313.15 K | 318.15 K | 323.15 K
x1 = 0.0258 | 1.36903 | 1.36828 | 1.36748 | 1.36732 | 1.36664 | 1.36649 | 1.36665
x1 = 0.0511 | 1.39091 | 1.38998 | 1.38899 | 1.38799 | 1.38719 | 1.38658 | 1.38756
x1 = 0.074 | 1.41121 | 1.4101 | 1.40897 | 1.4078 | 1.40673 | 1.40601 | 1.40547
x1 = 0.1027 | 1.41982 | 1.41868 | 1.41749 | 1.4163 | 1.4151 | 1.41389 | 1.41332
x1 = 0.1965 | 1.43901 | 1.43773 | 1.43645 | 1.43516 | 1.43386 | 1.43253 | 1.43117
x1 = 0.2957 | 1.45194 | 1.45066 | 1.44934 | 1.448 | 1.44669 | 1.44535 | 1.44401
x1 = 0.416 | 1.46075 | 1.4594 | 1.45817 | 1.45679 | 1.45543 | 1.45415 | 1.45266
x1 = 0.5184 | 1.46916 | 1.46786 | 1.46656 | 1.46532 | 1.46399 | 1.46255 | 1.46151
x1 = 0.5347 | 1.46974 | 1.46843 | 1.46709 | 1.46577 | 1.46444 | 1.46311 | 1.4618
x1 = 0.6044 | 1.47013 | 1.46887 | 1.46754 | 1.4662 | 1.46489 | 1.46346 | 1.46206
x1 = 0.6931 | 1.47355 | 1.4723 | 1.47098 | 1.46966 | 1.46835 | 1.46704 | 1.46574
x1 = 0.7801 | 1.47251 | 1.47121 | 1.47001 | 1.46842 | 1.46703 | 1.46554 | 1.46388
x1 = 0.8279 | 1.47481 | 1.47368 | 1.47226 | 1.47073 | 1.46931 | 1.46789 | 1.46631
x1 = 0.8996 | 1.48014 | 1.47898 | 1.47758 | 1.47607 | 1.47467 | 1.47331 | 1.47199
